Assay results: patent publication US20170209447A1, “Use of PNP Inhibitor to Treat Relapse of Malignancy after Hematopoietic Stem Cell Transplant” (Nitor Therapeutics, priority 2014, published 2017)

Assays:
Type in all cases: cell-based
human TLR2 = molecular target: T1, human TLR2 (Homo sapiens, UniProt O60603); experiment: TLR ligand screening: NF-κB SEAP reporter in HEK293 cells expressing TLR2; details: one concentration: Guanosine 100 uM, NTR001 10 uM, Inosine 100 uM; HEK293; triplicate; FIG. 2
T1 construct: expressed in transfected cells; host or cells: HEK293
Procedure: (§1) Toll-Like Receptor (TLR) Ligand Screening: In-vitro Activity of the PNPi, Guanosine and Inosine on Seven Different Human TLRs (TLR2, 3, 4, 5, 7, 8 and 9) as a Potential Agonist.
(§2) Method: TLR stimulation is tested by assessing NF-KB activation in HEK293 cells expressing a given TLR. The Secreted Embryonic Alkaline Phosphatase (SEAP) reporter is under the control of a promoter inducible by the transcription factor NF-κB.
(§3) This reporter gene allows the monitoring of signaling through the TLR, based on the activation of NF-κB. The compounds are evaluated at one concentration and compared to control ligands. This step is performed in triplicate.

human TLR7 = molecular target: T2, human TLR7 (Homo sapiens, UniProt Q9NYK1); experiment: TLR ligand screening: NF-κB SEAP reporter in HEK293 cells expressing TLR7; details: one concentration: NTR001 10 uM, Inosine 100 uM, triplicate, FIG. 2
T2 construct: expressed in transfected cells; host or cells: HEK293
T2 sequence (Q9NYK1 27-1049): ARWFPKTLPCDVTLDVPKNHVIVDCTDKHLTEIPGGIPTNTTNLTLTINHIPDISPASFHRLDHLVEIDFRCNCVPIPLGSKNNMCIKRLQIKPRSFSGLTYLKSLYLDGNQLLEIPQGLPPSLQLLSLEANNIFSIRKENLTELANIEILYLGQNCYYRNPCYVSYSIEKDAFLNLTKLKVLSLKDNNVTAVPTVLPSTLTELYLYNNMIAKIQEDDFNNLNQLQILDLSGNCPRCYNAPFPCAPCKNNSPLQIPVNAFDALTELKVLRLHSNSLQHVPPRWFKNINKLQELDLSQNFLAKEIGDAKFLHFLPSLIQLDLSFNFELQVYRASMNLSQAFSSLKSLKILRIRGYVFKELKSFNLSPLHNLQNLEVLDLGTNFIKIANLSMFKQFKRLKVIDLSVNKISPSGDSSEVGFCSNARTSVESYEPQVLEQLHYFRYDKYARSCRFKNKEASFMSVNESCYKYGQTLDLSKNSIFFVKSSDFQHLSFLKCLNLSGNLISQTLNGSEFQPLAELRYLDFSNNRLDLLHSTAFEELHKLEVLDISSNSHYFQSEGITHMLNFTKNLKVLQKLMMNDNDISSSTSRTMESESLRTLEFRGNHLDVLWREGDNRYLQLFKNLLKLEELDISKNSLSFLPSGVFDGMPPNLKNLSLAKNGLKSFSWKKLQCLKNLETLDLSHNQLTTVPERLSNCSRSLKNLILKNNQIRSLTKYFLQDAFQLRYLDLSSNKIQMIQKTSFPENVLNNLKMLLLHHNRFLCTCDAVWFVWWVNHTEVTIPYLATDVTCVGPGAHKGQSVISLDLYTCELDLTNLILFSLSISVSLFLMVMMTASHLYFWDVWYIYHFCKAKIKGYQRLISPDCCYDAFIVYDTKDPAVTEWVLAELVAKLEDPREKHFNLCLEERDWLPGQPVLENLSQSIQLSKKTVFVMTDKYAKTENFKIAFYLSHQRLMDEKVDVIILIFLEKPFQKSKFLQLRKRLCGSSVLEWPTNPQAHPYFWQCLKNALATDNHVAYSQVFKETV
Procedure: as §1, §2, §3

human TLR8 = molecular target: T3, human TLR8 (Homo sapiens, UniProt Q9NR97); experiment: TLR ligand screening: NF-κB SEAP reporter in HEK293 cells expressing TLR8; details: one concentration: NTR001 10 uM, Inosine 100 uM, triplicate, FIG. 2
T3 construct: expressed in transfected cells; host or cells: HEK293
T3 sequence (Q9NR97 27-1041): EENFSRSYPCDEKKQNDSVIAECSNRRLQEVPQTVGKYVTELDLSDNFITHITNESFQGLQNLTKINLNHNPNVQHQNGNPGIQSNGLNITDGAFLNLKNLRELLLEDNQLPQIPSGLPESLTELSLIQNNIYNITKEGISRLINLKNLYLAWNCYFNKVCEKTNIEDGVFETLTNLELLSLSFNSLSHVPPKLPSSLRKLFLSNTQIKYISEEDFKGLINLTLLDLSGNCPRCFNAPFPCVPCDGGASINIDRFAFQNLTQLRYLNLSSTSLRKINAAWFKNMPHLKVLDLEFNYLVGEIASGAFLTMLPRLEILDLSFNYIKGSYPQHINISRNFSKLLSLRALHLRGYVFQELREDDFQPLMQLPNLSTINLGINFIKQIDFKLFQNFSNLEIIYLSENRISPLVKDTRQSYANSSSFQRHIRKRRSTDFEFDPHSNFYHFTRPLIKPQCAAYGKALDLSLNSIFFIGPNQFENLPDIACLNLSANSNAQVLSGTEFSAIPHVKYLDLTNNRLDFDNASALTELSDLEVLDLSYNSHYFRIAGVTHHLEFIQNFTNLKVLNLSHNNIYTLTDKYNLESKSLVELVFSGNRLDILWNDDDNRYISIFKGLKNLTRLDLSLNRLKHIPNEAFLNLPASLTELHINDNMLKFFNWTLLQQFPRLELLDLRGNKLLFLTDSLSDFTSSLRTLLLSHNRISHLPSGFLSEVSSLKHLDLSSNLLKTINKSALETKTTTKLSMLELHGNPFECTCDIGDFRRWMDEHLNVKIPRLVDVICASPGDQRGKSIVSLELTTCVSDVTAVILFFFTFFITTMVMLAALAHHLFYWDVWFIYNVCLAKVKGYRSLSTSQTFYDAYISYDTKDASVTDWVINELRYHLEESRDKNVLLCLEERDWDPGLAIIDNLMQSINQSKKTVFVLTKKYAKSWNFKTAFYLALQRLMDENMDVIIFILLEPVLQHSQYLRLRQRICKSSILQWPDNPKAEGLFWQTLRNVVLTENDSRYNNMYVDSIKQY
Procedure: as §1, §2, §3

T1 sequence (O60603 21-784): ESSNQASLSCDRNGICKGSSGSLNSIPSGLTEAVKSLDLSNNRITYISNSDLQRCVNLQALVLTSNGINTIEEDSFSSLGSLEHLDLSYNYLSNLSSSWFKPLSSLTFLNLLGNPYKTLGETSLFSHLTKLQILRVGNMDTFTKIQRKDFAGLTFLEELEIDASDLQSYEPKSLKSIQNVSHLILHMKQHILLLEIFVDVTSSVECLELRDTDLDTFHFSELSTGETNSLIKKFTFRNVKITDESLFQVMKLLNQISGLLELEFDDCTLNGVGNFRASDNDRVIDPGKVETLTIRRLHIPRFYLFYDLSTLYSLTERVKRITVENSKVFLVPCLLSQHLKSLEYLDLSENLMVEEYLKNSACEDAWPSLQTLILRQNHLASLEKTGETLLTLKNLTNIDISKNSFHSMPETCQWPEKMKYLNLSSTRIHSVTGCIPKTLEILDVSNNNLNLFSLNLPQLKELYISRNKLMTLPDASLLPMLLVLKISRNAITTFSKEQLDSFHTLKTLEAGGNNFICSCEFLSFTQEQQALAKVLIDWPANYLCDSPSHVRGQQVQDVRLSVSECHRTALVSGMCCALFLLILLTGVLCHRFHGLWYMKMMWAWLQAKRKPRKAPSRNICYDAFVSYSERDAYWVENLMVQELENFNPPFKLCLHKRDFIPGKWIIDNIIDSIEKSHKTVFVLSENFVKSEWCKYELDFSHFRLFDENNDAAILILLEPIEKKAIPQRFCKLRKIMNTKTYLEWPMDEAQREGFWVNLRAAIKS

Structure (SMILES) | stimulatory effect on human TLR2 (NF-κB activation) (human TLR2) | stimulatory effect on human TLR7 (NF-κB activation) (human TLR7) | stimulatory effect on human TLR8 (NF-κB activation) (human TLR8)
OC[C@H]1O[C@@H](n2cnc3c(O)ncnc32)[C@H](O)[C@@H]1O [Inosine, inosine] | do not exhibit a stimulatory effect | do not exhibit a stimulatory effect | do not exhibit a stimulatory effect
O=c1[nH]cnc2c([C@@H]3N[C@H](CO)[C@@H](O)[C@H]3O)c[nH]c12 [NTR001, 7-[(2S,3S,4R,5R)-3,4-dihydroxy-5-(hydroxymethyl)-2-pyrrolidinyl]-1,5-dihyro-4-H-pyrrolo-[3,2-d]pyrimidin-4-one] | do not exhibit a stimulatory effect | do not exhibit a stimulatory effect | do not exhibit a stimulatory effect
